Patent US20080275083A1, “2,3,4,9-TETRAHYDRO-1H-CARBAZOLES” (priority 2007, published 2008)

Biological target: T1, human FSH receptor (Homo sapiens, UniProt P23945)
T1 construct: expressed in transfected cells; host or cells: CHO cells (hFSHR clone 16)
T1 sequence (P23945 18-695): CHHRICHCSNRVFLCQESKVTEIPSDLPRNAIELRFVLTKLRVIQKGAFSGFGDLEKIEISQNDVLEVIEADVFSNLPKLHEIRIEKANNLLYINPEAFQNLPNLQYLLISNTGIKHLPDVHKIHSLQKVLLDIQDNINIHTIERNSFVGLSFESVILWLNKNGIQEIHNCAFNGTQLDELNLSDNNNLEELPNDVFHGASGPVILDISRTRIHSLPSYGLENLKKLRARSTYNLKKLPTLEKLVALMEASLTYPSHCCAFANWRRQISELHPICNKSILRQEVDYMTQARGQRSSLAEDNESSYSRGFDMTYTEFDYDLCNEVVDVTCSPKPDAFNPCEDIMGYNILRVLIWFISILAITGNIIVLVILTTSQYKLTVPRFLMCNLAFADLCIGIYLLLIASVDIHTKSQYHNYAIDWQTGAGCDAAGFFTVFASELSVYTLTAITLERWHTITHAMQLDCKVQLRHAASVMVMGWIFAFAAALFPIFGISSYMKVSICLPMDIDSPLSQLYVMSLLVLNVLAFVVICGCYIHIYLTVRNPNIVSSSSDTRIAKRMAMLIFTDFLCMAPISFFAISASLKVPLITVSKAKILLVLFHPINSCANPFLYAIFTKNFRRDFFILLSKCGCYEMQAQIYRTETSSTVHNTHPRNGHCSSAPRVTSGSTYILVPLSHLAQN
Assay: HTRF assay for measuring cAMP in cells (FSH-antagonistic effect)
Format: cell-based
Conditions: hFSHR clone 16 cells (CHO cells stably transfected with the human FSH receptor), in the presence of 1e-9 mol/l hFSH
Protocol: HTRF Assay for Measuring cAMP in Cells
The method is based on a competitive immunoassay between native cAMP, which has been produced by the cells, and cAMP which is labelled with XL665. The tracer binding was visualized by a monoclonal antibody, anti-cAMP labelled with cryptate [HTRF=homogeneous time-resolved fluorescence].
The specific signal is inversely proportional to the cAMP concentration of the samples employed.
The 665 nm/620 nm fluorescence ratio was evaluated.
The following material was used: 96-well plates for the tissue culture, 96-well plates with black edge and black base (e.g. Fluotrac 600 from Greiner), 96-well plates for the substance dilutions of polypropylene and cAMP Femtomolar (4000 wells Kit, CIS Bio International #62AM1PEC).
The following reagents were used: BSA (bovine serum albumin) Fraction V protease-free, IBMX (3-isobutyl-1-methylxanthine), hFSH (human follicle stimulating hormone), Triton X-100 analytical grade, potassium fluoride analytical grade, G 418 (Geneticin) and Accutase.
Buffer 1 (washing and testing buffer) contained PBS, 1 mM CaCl2, 1 mM MgCl2, 0.2% glucose; 0.1% BSA, 1 mM IBMX. Buffer 2 (2× lysis buffer) contained 1% Triton X-100 in PBS (without CaCl2 and MgCl2). Buffer 3 (assay buffer) contained 50 mM potassium phosphate buffer (pH 7.0); 800 mM potassium fluoride; 0.2% BSA (always added fresh).
On day 1, the cells were seeded in 96-well plates (3×10^4 cells per well hFSHR clone 16 cells (CHO cells stably transfected with the human FSH receptor in 150 μl of medium). The next day, test substance dilutions were made up. For this purpose, all the substances were diluted in ice-cold buffer 1 (with or without hFSH), and the substance dilutions were placed on ice until applied to the cells.
The cell supernatant was then aspirated off, and the cells were washed 2× with 200 μl of buffer 1. The cells were treated with 60 μl of the appropriate substance concentrations at 37° C. for 2 h. The cells were then lysed with 60 μl of buffer 2 (put onto the supernatant) (on a plate shaker at RT for 30 min).
The test conjugates (XL-665 and anti-cAMP cryptate) were diluted in buffer 3 in accordance with the manufacturers' information. The actual mixture for measurement was pipetted into a black 96-well plate (in each case 15 μl of the cell lysate diluted with 35 μl of buffer 1; firstly 25 μl of XL-665 conjugate were pipetted and, after 10 min, 25 μl of the anti-cAMP cryptate were added). This is followed by incubation at RT for 90 minutes. The measurement was carried out in a PheraStar (BMG).
Dose-effect curve (hFSH) for the human receptor: 1e-8, 3e-9, 1e-9, 3e-10, 1e-10, 3e-11, 1e-11, 3e-12 mol/l.
The test substances were employed in suitable dilutions in the absence (test for agonism) and in the presence of 1e-9 mol/l hFSH.
The values of the well ratio were averaged and then entered directly in SigmaPlot versus the concentrations. The maximum and minimum values were determined for each plate, and half the difference is to be regarded as IC50.

Row | IC50 | Compound
1 | 2 µM | COc1ccc2nc(-c3ccccc3)cc(C(=O)NC3(CO)CCc4[nH]c5ccccc5c4C3)c2c1 (stereo not drawn) [Example 4, 6-Methoxy-2-phenyl-quinoline-4-carboxylic acid (3-hydroxymethyl-2,3,4,9-tetrahydro-1H-carbazol-3-yl)-amide]
2 | 0.6 µM | CC(C)Oc1ccc(-c2cc3ccccc3o2)cc1C(=O)NC1(CO)CCc2[nH]c3ccccc3c2C1 (stereo not drawn) [Example 38, 5-Benzofuran-2-yl-N-(3-hydroxymethyl-2,3,4,9-tetrahydro-1H-carbazol-3-yl)-2-isopropoxy-benzamide]
3 | 0.35 µM | CC(C)Oc1ccc(-c2cc3ccccc3o2)cc1C(=O)NC1(CO)CCc2[nH]c3ccc(F)cc3c2C1 (stereo not drawn) [Example 42, 5-Benzofuran-2-yl-N-(6-fluoro-3-hydroxymethyl-2,3,4,9-tetrahydro-1H-carbazol-3-yl)-2-isopropoxy-benzamide]
4 | 2.5 µM | Cc1cccc2c3c([nH]c12)CCC(CO)(NC(=O)c1cc(-c2cc4ccccc4o2)ccc1OC(C)C)C3 (stereo not drawn) [Example 46, 5-Benzofuran-2-yl-N-(3-hydroxymethyl-8-methyl-2,3,4,9-tetrahydro-1H-carbazol-3-yl)-2-isopropoxy-benzamide]

Row | Compound | IC50
5 | COc1ccc(-c2ccc(OC(C)C)c(C(=O)NC3(CO)CCc4[nH]c5ccc(F)cc5c4C3)c2)cc1OC (stereo not drawn) [Example 18, 4-Isopropoxy-3′,4′-dimethoxy-biphenyl-3-carboxylic acid (6-fluoro-3-hydroxymethyl-2,3,4,9-tetrahydro-1H-carbazol-3-yl)-amide] | 0.2 µM
6 | CC(C)Oc1ccc(-c2cc3ccccc3o2)cc1C(=O)NC1(CO)CCc2[nH]c3ccc(C(=O)O)cc3c2C1 (stereo not drawn) [Example 39, 6-(5-Benzofuran-2-yl-2-isopropoxy-benzoylamino)-6-hydroxymethyl-6,7,8,9-tetrahydro-5H-carbazole-3-carboxylic acid] | 6 µM
